According to patent publication US5792775A (priority 1996, dated 1998):
Where two headings read alike, the source gives them in different places.

Assays:
[1] = animal models, literature; cited from earlier work
[2] = tested on: locomotor activity in mice; experiment: Locomotor (ambulatory) activity; assay type: in vivo, Swiss Webster mice; conditions: i.p., FIGS. 5-8
Source text: Ambulatory activity of Male Swiss Webster mice (Taconic Farms) were studied in 40 cm^3 clear acrylic chambers. The acrylic chambers were placed inside monitors (Omnitech Electronics, Columbus, Ohio) that were equipped with light sensitive detectors, spaced 2.5 cm apart along two perpendicular walls. Mounted on the opposing walls were infrared light sources that were directed at the detectors. One count of horizontal activity was registered each time the subject interrupted two successive beams. Repetitive interruptions of the same beam due to behaviors, such as head bobbing or grooming, were not counted. Mice were injected and immediately placed in the apparatus for 60 min. Injections were administered i.p. in volumes of 1 mL/ 100 g. Each dose was studied in eight mice, and mice were used only once.
Horizontal activity counts are shown for the first 30 min of the session in which the maximal stimulation of activity was obtained. Each dose-effect curve was analyzed using standard analysis of variance (ANOVA) and post-hoc testing determine significance of effects at individual doses.

[3] = tested on: dopamine uptake, rat caudate putamen; assay type: biochemical; conditions: Table V; rat caudate putamen; read-out: [^3 H]DA Uptake Inhibition IC50
[4] = target: serotonin transporter (5HTT) (Rattus norvegicus, UniProt P31652); experiment: Serotonin transporter binding ([^3 H]citalopram), NOVASCREEN; conditions: for inhibition at 10 µM: read-out: 5HTT (% I@10 μM)
serotonin transporter (5HTT), sequence (P31652 whole entry): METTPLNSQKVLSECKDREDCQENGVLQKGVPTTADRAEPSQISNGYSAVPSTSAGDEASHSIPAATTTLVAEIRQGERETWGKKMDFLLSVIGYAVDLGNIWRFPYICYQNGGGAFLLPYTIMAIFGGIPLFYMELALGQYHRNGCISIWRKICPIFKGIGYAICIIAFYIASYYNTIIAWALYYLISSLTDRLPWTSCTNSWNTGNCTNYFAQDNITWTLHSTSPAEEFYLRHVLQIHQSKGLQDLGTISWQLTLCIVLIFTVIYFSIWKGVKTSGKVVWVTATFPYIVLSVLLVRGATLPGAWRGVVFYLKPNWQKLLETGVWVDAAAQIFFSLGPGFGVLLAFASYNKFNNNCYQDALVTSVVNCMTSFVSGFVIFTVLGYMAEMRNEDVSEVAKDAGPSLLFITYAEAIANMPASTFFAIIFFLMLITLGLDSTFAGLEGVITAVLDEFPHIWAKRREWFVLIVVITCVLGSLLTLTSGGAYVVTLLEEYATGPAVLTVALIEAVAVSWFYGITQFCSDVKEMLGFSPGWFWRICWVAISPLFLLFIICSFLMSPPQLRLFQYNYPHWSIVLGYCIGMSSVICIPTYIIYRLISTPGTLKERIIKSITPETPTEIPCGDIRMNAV
Source text: (§1) Serotonin (5-HTT), norepinephrine transporter (NET) and muscarinic m1 and m2 receptor binding data were provided by NOVASCREEN.

[5] = target: T1, dopamine transporter (DAT) (Rattus norvegicus, UniProt P23977); conditions: read-out: DAT Ki, nM (% error); cited from earlier work
T1 construct: brains removed to an ice-cooled dish for dissection of the caudate putamen; from tissue; host or cells: rat caudate putamen, washed membranes of male Sprague-Dawley rats (Taconic)
T1 sequence (P23977 whole entry): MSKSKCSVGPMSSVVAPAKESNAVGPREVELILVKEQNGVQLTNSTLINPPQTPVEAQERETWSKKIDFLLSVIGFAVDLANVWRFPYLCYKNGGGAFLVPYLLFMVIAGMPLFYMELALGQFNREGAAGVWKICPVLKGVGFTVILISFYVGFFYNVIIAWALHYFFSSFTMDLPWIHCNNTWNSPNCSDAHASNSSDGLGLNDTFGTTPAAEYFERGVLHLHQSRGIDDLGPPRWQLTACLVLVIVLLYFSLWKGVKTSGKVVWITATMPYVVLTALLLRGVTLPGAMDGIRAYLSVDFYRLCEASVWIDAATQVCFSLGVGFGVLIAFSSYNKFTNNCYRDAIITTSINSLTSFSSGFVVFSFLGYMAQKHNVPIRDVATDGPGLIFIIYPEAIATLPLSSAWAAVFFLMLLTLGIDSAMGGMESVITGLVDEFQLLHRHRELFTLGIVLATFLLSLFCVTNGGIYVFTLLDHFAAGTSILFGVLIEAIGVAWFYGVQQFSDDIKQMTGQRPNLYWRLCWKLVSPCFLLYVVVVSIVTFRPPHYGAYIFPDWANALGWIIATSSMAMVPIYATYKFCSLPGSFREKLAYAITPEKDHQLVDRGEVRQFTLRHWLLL

[6] = target: norepinephrine transporter (NET) (Rattus norvegicus, UniProt Q63380); experiment: biochemical; assay type: binding; conditions: for inhibition at 10 µM: read-out: NET (% I@10 μM)
norepinephrine transporter (NET) (Rattus norvegicus, UniProt Q63380), sequence (Q63380 1-617): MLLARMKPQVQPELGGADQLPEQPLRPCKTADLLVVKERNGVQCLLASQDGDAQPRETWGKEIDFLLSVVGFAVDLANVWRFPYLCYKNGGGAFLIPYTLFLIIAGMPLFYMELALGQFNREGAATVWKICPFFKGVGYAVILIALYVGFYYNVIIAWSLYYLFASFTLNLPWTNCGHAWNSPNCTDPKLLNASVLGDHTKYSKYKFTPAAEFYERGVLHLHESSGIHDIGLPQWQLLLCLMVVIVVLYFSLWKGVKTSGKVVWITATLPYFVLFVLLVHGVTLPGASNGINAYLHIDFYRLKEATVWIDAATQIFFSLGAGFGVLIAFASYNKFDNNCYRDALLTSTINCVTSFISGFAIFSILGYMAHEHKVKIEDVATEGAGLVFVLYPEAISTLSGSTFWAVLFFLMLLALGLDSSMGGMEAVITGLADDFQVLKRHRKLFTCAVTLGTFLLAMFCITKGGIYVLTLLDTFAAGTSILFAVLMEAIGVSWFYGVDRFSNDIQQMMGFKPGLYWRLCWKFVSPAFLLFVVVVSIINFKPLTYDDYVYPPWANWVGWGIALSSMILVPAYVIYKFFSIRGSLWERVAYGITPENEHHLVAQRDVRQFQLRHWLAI

[7] = tested on: norepinephrine transporter (NET); experiment: biochemical; assay type: binding; conditions: DAT vs. NET
[8] = target: T2, muscarinic m2 receptors (Rattus norvegicus, UniProt P10980); experiment: Muscarinic m2 receptor binding ([^3 H]AFDX 384), NOVASCREEN; conditions: Table III
T2 sequence (P10980 1-466): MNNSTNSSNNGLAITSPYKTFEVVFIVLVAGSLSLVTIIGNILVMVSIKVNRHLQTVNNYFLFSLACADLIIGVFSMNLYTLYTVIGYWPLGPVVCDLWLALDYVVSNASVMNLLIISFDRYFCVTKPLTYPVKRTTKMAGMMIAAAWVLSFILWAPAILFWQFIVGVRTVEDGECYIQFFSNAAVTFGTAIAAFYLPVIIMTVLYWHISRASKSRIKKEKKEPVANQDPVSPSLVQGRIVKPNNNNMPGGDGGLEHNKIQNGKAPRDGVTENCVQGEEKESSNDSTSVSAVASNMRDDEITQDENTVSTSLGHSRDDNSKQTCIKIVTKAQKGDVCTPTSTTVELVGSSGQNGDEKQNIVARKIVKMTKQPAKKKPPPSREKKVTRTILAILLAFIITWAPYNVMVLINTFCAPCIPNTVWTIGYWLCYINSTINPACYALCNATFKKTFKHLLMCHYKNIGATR
Source text: as §1

[9] = target: T1, dopamine transporter (DAT); experiment: Displacement of [^3 H]WIN 35,428 binding (Dopamine Transporter Binding Assay); conditions: Table III; displacement of [^3 H]WIN 35,428, rat caudate putamen; % error in parentheses
[10] = target: T3, muscarinic m1 receptors (Rattus norvegicus, UniProt P08482); experiment: biochemical; assay type: binding; conditions: for Ki: Table III, read-out: m1, Ki
T3 sequence (P08482 1-460): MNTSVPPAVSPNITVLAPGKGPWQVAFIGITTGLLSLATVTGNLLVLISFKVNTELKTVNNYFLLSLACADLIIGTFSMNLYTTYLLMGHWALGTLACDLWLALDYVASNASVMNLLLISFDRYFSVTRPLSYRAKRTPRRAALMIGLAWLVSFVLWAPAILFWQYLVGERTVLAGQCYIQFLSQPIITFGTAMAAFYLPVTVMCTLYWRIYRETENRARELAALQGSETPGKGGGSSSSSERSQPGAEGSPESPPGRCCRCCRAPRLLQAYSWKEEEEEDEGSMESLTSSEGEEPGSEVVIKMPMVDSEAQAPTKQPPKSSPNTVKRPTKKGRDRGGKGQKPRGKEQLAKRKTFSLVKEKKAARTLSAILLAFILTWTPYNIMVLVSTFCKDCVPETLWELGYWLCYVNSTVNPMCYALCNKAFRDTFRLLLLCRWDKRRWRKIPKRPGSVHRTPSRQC

| Structure (SMILES) | CNS stimulatory activity [1] | stimulation of locomotor activity [2] | IC50 [3] | inhibition at 10 µM [4] | Ki [5] | inhibition at 10 µM [6] | Ki ([4]; Table III, footnote d, read-out: 5HTT Ki value in nM (bracketed)) | potency at dopamine transporter as compared to norepinephrine transporter [7] | Ki [6] | Ki ([6]; read-out: NET, Ki, Table IV) | Ki [8] | Ki [9] | Ki [10] | selectivity for m1 over m2 sites ([10]; m1 vs. m2) |
| --- | --- | --- | --- | --- | --- | --- | --- | --- | --- | --- | --- | --- | --- | --- |
| CN1[C@@H]2CC[C@H]1C[C@@H](OC(c1ccccc1)c1ccccc1)C2 [Compound 2, 3α-(diphenylmethoxy)-1αH,5αH-tropane] | exhibits CNS stimulatory activity in animal models | do not produce locomotor stimulant activity | – | – | – | – | – | – | – | – | – | – | – | – |
| CN1[C@@H]2CC[C@H]1C[C@H](OC(c1ccccc1)c1ccc(Cl)cc1)C2 (stereo partly drawn) [Compound 10, 3β-4'-Chloro-(diphenylmethoxy)tropane] | – | – | 3520 nM | 37.2% | 854 nM | 27.9% | – | – | – | – | – | – | – | – |
| CN1[C@@H]2CC[C@H]1C[C@@H](OC(c1ccc(F)cc1)c1ccc(F)cc1)C2 [Compound 7c, 4',4"-difluoro-3α-(diphenylmethoxy)tropane] | – | – | – | 62% | – | 30% | > 2440 nM | > 700 fold | > 8500 nM | > 8500 nM | – | – | – | – |
| CN1[C@@H]2CC[C@H]1C[C@@H](OC(c1ccccc1)c1ccc(C(F)(F)F)cc1)C2 (stereo partly shown) [Compound 7m] | – | – | 2160 nM | 49.1% | – | 34.6% | – | – | – | – | 1510 nM | 635 nM | 5.4 nM | ~300 fold |
| CN1[C@@H]2CC[C@H]1C[C@@H](OC(c1ccccc1)c1ccc(O)cc1)C2 (stereo partly drawn) [Compound 7r, 3α-4'-Hydroxy-(diphenylmethoxy)tropane] | – | – | 677 nM | 23.3% | – | 27.3% | – | – | – | – | 17.7 nM | 297 nM | 2.1 nM | – |
